These results are taken from PubChem BioAssay (NCI).

Test systems include HOP-62 NSCLC; EKVX NSCLC; MOLT-4 leukemia; SR leukemia; MCF7 breast; SK-OV-3 ovarian; U251 CNS; NCI/ADR-RES ovarian; UACC-257 melanoma; TK-10 renal; CAKI-1 renal; HCT-116 colon; OVCAR-3 ovarian; LOX IMVI melanoma; CCRF-CEM leukemia; MDA-MB-231 breast; SN12C renal.
Holding throughout (test): NCI anticancer screen, dose series, 48 h

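Growth conditions: 96-well plates. Treatment: test compound, 48 hours, 5 concentrations. Analysis: linear interpolation between bracketing concentrations; unreached endpoints set to highest concentration. TGI: concentration producing complete growth inhibition.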

With `COC(=O)[C@@H]1C=C[C@H](OC2OC(COC(C)=O)C(OC(C)=O)C(OC(C)=O)C2OC(C)=O)n2c(=O)c3ccccc3c(=O)n21` (some centres not stated), the TGI with HOP-62 NSCLC is 36.3 µM; in the assay with EKVX NSCLC it was 30.5 µM; in the assay on MOLT-4 leukemia, 41.1 µM; in the assay on SR leukemia, over 100 µM; in the assay with MCF7 breast, 29.3 µM; in the assay on SK-OV-3 ovarian, 28.2 µM. Moreover, the TGI amounted to 25.1 µM in the assay on U251 CNS; 56.7 µM in the assay with NCI/ADR-RES ovarian; 51.2 µM in the assay with UACC-257 melanoma; 18.3 µM in the assay on TK-10 renal; 13 µM with CAKI-1 renal; 22.8 µM with HCT-116 colon. In addition, the figures for the TGI in the assay on OVCAR-3 ovarian, in the assay on LOX IMVI melanoma and in the assay with CCRF-CEM leukemia were 22.2 µM, 29.5 µM and 24.9 µM, respectively.

For `Cc1ccc(O)c(C(c2ccc([N+](=O)[O-])cc2)c2cc(C)ccc2O)c1`, the TGI came out at 23.1 µM in the assay with HOP-62 NSCLC; 34.3 µM in the assay with EKVX NSCLC; 26.3 µM in the assay with MOLT-4 leukemia; 22.8 µM in the assay on SR leukemia; 20.3 µM with MCF7 breast; 30 µM with SK-OV-3 ovarian. In addition, the TGI with U251 CNS turned out to be 48.8 µM; in the assay on NCI/ADR-RES ovarian it was 28.7 µM; in the assay on MDA-MB-231 breast, 26.2 µM; with UACC-257 melanoma it was 28.4 µM; in the assay with SN12C renal it was 27.3 µM; with TK-10 renal it was 30.4 µM. In addition, the TGI in the assay with CAKI-1 renal amounted to 28.6 µM; in the assay with HCT-116 colon, 40.6 µM; in the assay on OVCAR-3 ovarian, 19.9 µM; with LOX IMVI melanoma, 55.6 µM; in the assay with CCRF-CEM leukemia, 56.9 µM.

Take `COP(=O)(Cc1ccc(/C=C/C#N)o1)OC`: the TGI in the assay on HOP-62 NSCLC, in the assay with EKVX NSCLC, in the assay on MOLT-4 leukemia, in the assay with SR leukemia, with MCF7 breast and in the assay on SK-OV-3 ovarian was over 100 µM in each case. Also, the TGI with U251 CNS, in the assay on NCI/ADR-RES ovarian, with MDA-MB-231 breast, in the assay on TK-10 renal, in the assay on HCT-116 colon and in the assay on OVCAR-3 ovarian was over 100 µM in each case. This compound also displayed a TGI with CCRF-CEM leukemia of over 100 µM.

Turning to `CCOCN1COCN=C1NC#N`, the TGI in the assay with HOP-62 NSCLC is over 100 µM; in the assay on EKVX NSCLC it was over 100 µM; with MOLT-4 leukemia, over 100 µM; in the assay on SR leukemia it was 76.5 µM; in the assay on SK-OV-3 ovarian, over 100 µM; in the assay on U251 CNS, over 100 µM. The TGI in the assay on UACC-257 melanoma, in the assay on SN12C renal, in the assay on TK-10 renal, in the assay on CAKI-1 renal, in the assay on HCT-116 colon and with OVCAR-3 ovarian was over 100 µM throughout.

In the case of `Cc1ccccc1C1OC(=O)c2ccccc21` (configuration not stated), the TGI in the assay with HOP-62 NSCLC, with EKVX NSCLC, in the assay with MOLT-4 leukemia, with SR leukemia, in the assay with SK-OV-3 ovarian and in the assay with U251 CNS was over 100 µM in each case. In addition, the TGI with SN12C renal, in the assay on TK-10 renal, with HCT-116 colon, in the assay on OVCAR-3 ovarian, with LOX IMVI melanoma and in the assay with CCRF-CEM leukemia was over 100 µM throughout.

On to `COc1ccc(/C(Cl)=C(/c2ccc(O)cc2)c2ccc(OCCN(C)C)cc2)cc1`, for which the TGI stood at 26.7 µM with HOP-62 NSCLC; 30.3 µM in the assay on EKVX NSCLC; 10.6 µM in the assay on SR leukemia; 26.3 µM with SK-OV-3 ovarian; 23.3 µM with U251 CNS; 9.09 µM in the assay on UACC-257 melanoma. The TGI in the assay on SN12C renal turned out to be 26.2 µM; with TK-10 renal, 34.1 µM; in the assay on CAKI-1 renal, 27.5 µM; in the assay with OVCAR-3 ovarian it was 28.8 µM; in the assay on LOX IMVI melanoma, 12.6 µM.

As for `CCCCCCCc1cc(OC(=O)c2c(C)cc(OC)cc2O)cc(O)c1C(=O)O`, the TGI was 35.2 µM in the assay with HOP-62 NSCLC; 77 µM in the assay with EKVX NSCLC; 88.3 µM in the assay with MOLT-4 leukemia; 69.2 µM in the assay on SK-OV-3 ovarian; 32.1 µM in the assay on U251 CNS; 87.7 µM in the assay with UACC-257 melanoma. Further, the TGI is 82.9 µM in the assay with SN12C renal; 90.2 µM in the assay with TK-10 renal; 43.4 µM in the assay on CAKI-1 renal; 28.7 µM in the assay on OVCAR-3 ovarian; 48.7 µM in the assay on LOX IMVI melanoma; 78.6 µM with CCRF-CEM leukemia.

As for `C#CCNC(=O)NCCCC(NC(C)=O)C(=O)NCc1ccccc1` (configuration not stated), the TGI in the assay on HOP-62 NSCLC, with EKVX NSCLC, in the assay with MOLT-4 leukemia, with SR leukemia, in the assay on SK-OV-3 ovarian and in the assay on U251 CNS was over 100 µM throughout. The TGI in the assay with UACC-257 melanoma, in the assay on SN12C renal, with TK-10 renal, in the assay with CAKI-1 renal, in the assay with HCT-116 colon and in the assay with OVCAR-3 ovarian was over 100 µM each time. Moreover, the TGI with LOX IMVI melanoma and in the assay with CCRF-CEM leukemia was over 100 µM in each case.

With `Nc1ccc2nc(NCc3ccc(F)cc3)cnc2c1`, the TGI in the assay on HOP-62 NSCLC, in the assay on EKVX NSCLC, in the assay on MOLT-4 leukemia, with SR leukemia, with U251 CNS and with SN12C renal was over 100 µM in each case. Moreover, the TGI in the assay on TK-10 renal, in the assay with HCT-116 colon, in the assay with OVCAR-3 ovarian, with LOX IMVI melanoma and in the assay with CCRF-CEM leukemia was over 100 µM in each case.

`C=[N+](CNC(=O)CNC(=O)C(Cc1ccc([N+](=O)[O-])cc1)NC(=O)OC(C)(C)C)C(=O)CNC(=O)C(Cc1ccc([N+](=O)[O-])cc1)NC(=O)OC(C)(C)C` (configuration not stated): the TGI is over 100 µM in the assay on HOP-62 NSCLC; over 100 µM in the assay with EKVX NSCLC; 67.4 µM in the assay on MOLT-4 leukemia; 80.6 µM in the assay on SR leukemia; over 100 µM in the assay with MCF7 breast; over 100 µM in the assay with SK-OV-3 ovarian. Also, the TGI with U251 CNS is over 100 µM; in the assay on NCI/ADR-RES ovarian, over 100 µM; in the assay with MDA-MB-231 breast, 59 µM; in the assay on SN12C renal it was over 100 µM; in the assay on TK-10 renal, over 100 µM; with CAKI-1 renal it was over 100 µM. Moreover, the results for the TGI in the assay with HCT-116 colon, in the assay with OVCAR-3 ovarian and in the assay with LOX IMVI melanoma were over 100 µM, over 100 µM and 33.4 µM, respectively.
